Laboratory results from patent US10683290B2, “Tricyclic compounds as anticancer agents” (BRISTOL-MYERS SQUIBB COMPANY, priority 2015, dated 2020).

Biological target: BRD4 (Homo sapiens, UniProt O60885)
Experiment: biochemical
Format: binding
Settings: one of the FRET assays described; read-out: FRET BRD4 IC50

Compound | IC50 [nM]
[2H]C([2H])([2H])c1nnn(C)c1-c1cc2c(cc1F)c1ncc(C(C)(C)O)cc1n2C(c1ncccc1OC)C1CCOCC1 (single isomer, unassigned) [Example 40, 2-{8-fluoro-5-[(3-methoxypyridin-2-yl)(oxan-4-yl)methyl}-7-[4-(^2H3)methyl-1-methyl-1H-1,2,3-triazol-5-yl]-5H-pyrido[3,2-b]indol-3-yl]propan-2-ol] | < 1500
[2H]C([2H])([2H])c1nnn(C)c1-c1cc2c(cc1F)c1ncc(C(C)(C)O)cc1n2C(c1ncccc1OC)C1CCOCC1 (single isomer, unassigned) [Example 41, 2-{8-fluoro-5-[(3-methoxypyridin-2-yl)(oxan-4-yl)methyl}-7-[4-(^2H3)methyl-1-methyl-1H-1,2,3-triazol-5-yl]-5H-pyrido[3,2-b]indol-3-yl]propan-2-ol] | < 5
[2H]C([2H])([2H])c1nnn(C)c1-c1cc2c(cc1F)c1ncc(C(C)(C)O)cc1n2C(c1ncccc1C)C1CCOCC1 (single isomer, unassigned) [Example 42, 2-{8-fluoro-7-[4-(^2H3)methyl-1-methyl-1H-1,2,3-triazol-5-yl]-5-[(3-methylpyridin-2-yl)(oxan-4-yl)methyl}-5H-pyrido[3,2-b]indol-3-yl]propan-2-ol] | < 5
[2H]C([2H])([2H])c1nnn(C)c1-c1cc2c(cc1F)c1ncc(C(C)(C)O)cc1n2C(c1ncccc1C)C1CCOCC1 (single isomer, unassigned) [Example 43, 2-{8-fluoro-7-[4-(^2H3)methyl-1-methyl-1H-1,2,3-triazol-5-yl]-5-[(3-methylpyridin-2-yl)(oxan-4-yl)methyl}-5H-pyrido[3,2-b]indol-3-yl]propan-2-ol] | < 5
[2H]C([2H])([2H])c1nnn(C)c1-c1cc2c(cc1F)c1ncc(C(C)(C)O)cc1n2C(c1ccc(F)cn1)C1CCOCC1 (single isomer, unassigned) [Example 44, 2-{8-fluoro-5-[(5-fluoropyridin-2-yl)(oxan-4-yl)methyl}-7-[4-(^2H3)methyl-1-methyl-1H-1,2,3-triazol-5-yl]-5H-pyrido[3,2-b]indol-3-yl]propan-2-ol] | < 1500
[2H]C([2H])([2H])c1nnn(C)c1-c1cc2c(cc1F)c1ncc(C(C)(C)O)cc1n2C(c1ccc(F)cn1)C1CCOCC1 (single isomer, unassigned) [Example 45, 2-{8-fluoro-5-[(5-fluoropyridin-2-yl)(oxan-4-yl)methyl}-7-[4-(^2H3)methyl-1-methyl-1H-1,2,3-triazol-5-yl]-5H-pyrido[3,2-b]indol-3-yl]propan-2-ol] | < 5
[2H]C([2H])([2H])c1nnn(C)c1-c1cc2c(cc1F)c1ncc(C(C)(C)O)cc1n2C(c1ncccn1)C1CCOCC1 (single isomer, unassigned) [Example 46] | < 5
[2H]C([2H])([2H])c1nnn(C)c1-c1cc2c(cc1F)c1ncc(C(C)(C)O)cc1n2C(c1ncccn1)C1CCOCC1 (single isomer, unassigned) [Example 47, 2-{8-fluoro-7-[4-(^2H3)methyl-1-methyl-1H-1,2,3-triazol-5-yl]-5-[oxan-4-yl(pyrimidin-2-yl)methyl]-5H-pyrido[3,2-b]indol-3-yl}propan-2-ol] | < 5
[2H]C([2H])([2H])c1nnn(C)c1-c1cc2c(cc1F)c1ncc(C(C)(C)O)cc1n2C(CCC)c1ccccn1 (single isomer, unassigned) [Example 48, 2-{8-fluoro-7-[4-(^2H3)methyl-1-methyl-1H-1,2,3-triazol-5-yl]-5-[1-(pyridin-2-yl)butyl]-5H-pyrido[3,2-b]indol-3-yl}propan-2-ol] | < 1500
[2H]C([2H])([2H])c1nnn(C)c1-c1cc2c(cc1F)c1ncc(C(C)(C)O)cc1n2C(CCC)c1ccccn1 (single isomer, unassigned) [Example 49, 2-{8-fluoro-7-[4-(^2H3)methyl-1-methyl-1H-1,2,3-triazol-5-yl]-5-[1-(pyridin-2-yl)butyl]-5H-pyrido[3,2-b]indol-3-yl}propan-2-ol] | < 5
[2H]C([2H])([2H])c1nnn(C)c1-c1cc2c(cc1F)c1ncc(C(C)(C)O)cc1n2C(c1cc(OC)ccn1)C1CCOCC1 (single isomer, unassigned) [Example 50, 2-{8-fluoro-5-[(4-methoxypyridin-2-yl)(oxan-4-yl)methyl]-7-[4-(^2H3)methyl-1-methyl-1H-1,2,3-triazol-5-yl]-5H-pyrido[3,2-b]indol-3-yl}propan-2-ol] | < 5
[2H]C([2H])([2H])c1nnn(C)c1-c1cc2c(cc1F)c1ncc(C(C)(C)O)cc1n2C(c1cc(OC)ccn1)C1CCOCC1 (single isomer, unassigned) [Example 51, 2-{8-fluoro-5-[(4-methoxypyridin-2-yl)(oxan-4-yl)methyl]-7-[4-(^2H3)methyl-1-methyl-1H-1,2,3-triazol-5-yl]-5H-pyrido[3,2-b]indol-3-yl}propan-2-ol] | < 1500
[2H]C([2H])([2H])c1nnn(C)c1-c1cc2c(cc1F)c1ncc(C(C)(C)O)cc1n2C(c1cc(C)ccn1)C1CCOCC1 (single isomer, unassigned) [Example 52, 2-{8-fluoro-7-[4-(^2H3)methyl-1-methyl-1H-1,2,3-triazol-5-yl]-5-[(4-methylpyridin-2-yl)(oxan-4-yl)methyl]-5H-pyrido[3,2-b]indol-3-yl}propan-2-ol] | < 5
[2H]C([2H])([2H])c1nnn(C)c1-c1cc2c(cc1F)c1ncc(C(C)(C)O)cc1n2C(c1cc(C)ccn1)C1CCOCC1 (single isomer, unassigned) [Example 53, 2-{8-fluoro-7-[4-(^2H3)methyl-1-methyl-1H-1,2,3-triazol-5-yl]-5-[(4-methylpyridin-2-yl)(oxan-4-yl)methyl]-5H-pyrido[3,2-b]indol-3-yl}propan-2-ol] | < 1500
Cc1nnn(C)c1-c1cc2c(cc1F)c1ncc(C(C)(C)O)cc1n2C(c1ncccn1)C1CCOCC1 (single isomer, unassigned) [Example 54] | < 5
Cc1nnn(C)c1-c1cc2c(cc1F)c1ncc(C(C)(C)O)cc1n2C(c1ncccn1)C1CCOCC1 (single isomer, unassigned) [Example 55] | < 1500
[2H]C([2H])([2H])c1nnn(C)c1-c1cc2c(cc1F)c1ncc(C(C)(C)O)cc1n2C(c1ccc(C)cn1)C1CCOCC1 (single isomer, unassigned) [Example 56, 2-{8-fluoro-7-[4-(^2H3)methyl-1-methyl-1H-1,2,3-triazol-5-yl]-5-[(5-methylpyridin-2-yl)(oxan-4-yl)methyl]-5H-pyrido[3,2-b]indol-3-yl}propan-2-ol] | < 5
[2H]C([2H])([2H])c1nnn(C)c1-c1cc2c(cc1F)c1ncc(C(C)(C)O)cc1n2C(c1ccc(C)cn1)C1CCOCC1 (single isomer, unassigned) [Example 57, 2-{8-fluoro-7-[4-(^2H3)methyl-1-methyl-1H-1,2,3-triazol-5-yl]-5-[(5-methylpyridin-2-yl)(oxan-4-yl)methyl]-5H-pyrido[3,2-b]indol-3-yl}propan-2-ol] | < 1500
[2H]C([2H])([2H])c1nnn(C)c1-c1cc2c(cc1F)c1ncc(C(C)(C)O)cc1n2C(CCC)c1ccc(F)cn1 (single isomer, unassigned) [Example 59, 2-{8-fluoro-5-[1-(5-fluoropyridin-2-yl)butyl]-7-[4-(^2H3)methyl-1-methyl-1H-1,2,3-triazol-5-yl]-5H-pyrido[3,2-b]indol-3-yl}propan-2-ol] | < 5
[2H]C([2H])([2H])c1nnn(C)c1-c1cc2c(cc1F)c1ncc(C(C)(C)O)cc1n2C(CCOC)c1ccccc1 (single isomer, unassigned) [Example 62, 2-[8-fluoro-5-(3-methoxy-1-phenylpropyl)-7-[4-(^2H3)methyl-1-methyl-1H-1,2,3-triazol-5-yl]-5H-pyrido[3,2-b]indol-3-yl]propan-2-ol] | < 1500
[2H]C([2H])([2H])c1nnn(C)c1-c1cc2c(cc1F)c1ncc(C(C)(C)O)cc1n2C(CCOC)c1ccccc1 (single isomer, unassigned) [Example 63, 2-[8-fluoro-5-(3-methoxy-1-phenylpropyl)-7-[4-(^2H3)methyl-1-methyl-1H-1,2,3-triazol-5-yl]-5H-pyrido[3,2-b]indol-3-yl]propan-2-ol] | < 5
[2H]C([2H])([2H])c1nnn(C)c1-c1cc2c(cc1F)c1ncc(C(C)(C)O)cc1n2C(c1ccccc1)C1(C)COC1 (single isomer, unassigned) [Example 64, 2-{8-fluoro-7-[4-(^2H3)methyl-1-methyl-1H-1,2,3-triazol-5-yl]-5-[(3-methyloxetan-3-yl)(phenyl)methyl]-5H-pyrido[3,2-b]indol-3-yl}propan-2-ol] | < 5
[2H]C([2H])([2H])c1nnn(C)c1-c1cc2c(cc1F)c1ncc(C(C)(C)O)cc1n2C(c1ccccc1)C1(C)COC1 (single isomer, unassigned) [Example 65, 2-{8-fluoro-7-[4-(^2H3)methyl-1-methyl-1H-1,2,3-triazol-5-yl]-5-[(3-methyloxetan-3-yl)(phenyl)methyl]-5H-pyrido[3,2-b]indol-3-yl}propan-2-ol] | < 1500
[2H]C([2H])([2H])c1nnn(C)c1-c1cc2c(cc1F)c1ncc(C(C)(C)O)cc1n2C(c1ccccc1)C1COC1 (single isomer, unassigned) [Example 67, 2-{8-fluoro-7-[4-(^2H3)methyl-1-methyl-1H-1,2,3-triazol-5-yl]-5-[oxetan-3-yl(phenyl)methyl]-5H-pyrido[3,2-b]indol-3-yl}propan-2-ol] | < 5
[2H]C([2H])([2H])c1nnn(C)c1-c1cc2c(cc1F)c1ncc(C(C)(C)O)cc1n2C(c1ccccc1)C1COC1 (single isomer, unassigned) [Example 68, 2-{8-fluoro-7-[4-(^2H3)methyl-1-methyl-1H-1,2,3-triazol-5-yl]-5-[oxetan-3-yl(phenyl)methyl]-5H-pyrido[3,2-b]indol-3-yl}propan-2-ol] | < 1500
Cc1nnn(C)c1-c1cc2c(cc1F)c1ncc(C(C)(C)O)cc1n2C(c1ccc(F)cn1)C1CCOCC1 (single isomer, unassigned) [Example 69, 2-[7-(dimethyl-1H-1,2,3-triazol-5-yl)-8-fluoro-5-[(5-fluoropyridin-2-yl)(oxan-4-yl)methyl]-5H-pyrido[3,2-b]indol-3-yl]propan-2-ol] | < 1500
